Reference: patent US20080027076A1, “Pyrimidines With Tie2 (Tek) Activity” (ASTRAZENECA AB, priority 2003, published 2008)

Assays:
Tie2 receptor = biological target: T1, Tie2 receptor (Homo sapiens, UniProt Q02763); assay: Cellular Tie2 autophosphorylation assay (Test (b)); format: cell-based; settings: Ang1 ligand stimulated cellular Tie2 receptor, e.g. EA.hy926/B3 cells; read-out: IC50 Test (b): Inhibition of autophosphorylation of Tie2 receptor tyrosine kinase
T1 construct: one can use natural cell lines or primary cells which are known to express the receptor of choice; endogenous in cells; host or cells: EA.hy926/B3 cells
Source text: b. Cellular Tie2 Autophosphorylation Assay
This assay is based on measuring the ability of compounds to inhibit autophosphorylation of the Tie2 receptor which normally leads to the production of “activated” receptor that in turn initiates the particular signal transduction pathways associated with the receptor function.
Autophosphorylation can be achieved by a number of means. It is known that expression of recombinant kinase domains in baculoviral systems can lead to the production of phosphorylated and activated receptor. It is also reported that over expression of receptors in recombinant cell lines can itself lead to receptor autophosphorylation in the absence of the ligand (Heldin C-H. 1995 Cell : 80, 213-223; Blume-J. P, Hunter T. 2001 Nature: 411, 355-65). Furthermore, there are numerous literature examples in which chimaeric receptors have been constructed. In these cases the natural, external cell surface domain of the receptor has been replaced with that of a domain which is known to be readily dimerised via the addition of the appropriate ligand (e.g. TrkA-Tie2/NGF ligand (Marron, M. B., et al., 2000 Journal of Biological Chemistry: 275:39741-39746) or C-fms-Tie-1/CSF-1 ligand (Kontos, C. D., et al., 2002 Molecular and Cellular Biology: 22, 1704-1713). Thus when the chimaeric receptor expressed in a host cell line and the respective ligand is added, this induces autophosphorylation of the chimeric receptor's kinase domain. This approach has the advantage of often allowing a known (and often easily obtained) ligand to be used instead of having to identify and isolate the natural ligand for each receptor of interest.
Naturally if the ligand is available one can use natural cell lines or primary cells which are known to express the receptor of choice and simply stimulate with ligand to achieve ligand induced phosphorylation. […]

[1] = biological target: T2, Tie2 receptor tyrosine kinase (Homo sapiens, UniProt Q02763); assay: In vitro receptor tyrosine kinase inhibition assay (ELISA based, Test (a)); format: biochemical; settings: recombinant human Tie2 kinase domain lysate, synthetic peptide substrate
T2 construct: consist of only the intracellular portion C-terminal portion of the respective receptor, within which is found the kinase domain; made in house; host or cells: baculovirus/Sf21 insect cells (cleared lysate used)
Procedure: a. In Vitro Receptor Tyrosine Kinase Inhibition Assay
To test for inhibition of Tie2 receptor tyrosine kinase, compounds are evaluated in a non-cell based protein kinase assay by their ability to inhibit the protein kinase enzyme phosphorylation of a tyrosine containing polypeptide substrate in an ELISA based microtitre plate assay. In this particular case, the assay was to determine the IC50, for three different recombinant human tyrosine kinases Tie2, KDR and Flt.
To facilitate production of the tyrosine kinases, recombinant receptor genes were produced using standard molecular biology cloning and mutagenesis techniques. These recombinant proteins fragments encoded within these genes consist of only the intracellular portion C-terminal portion of the respective receptor, within which is found the kinase domain. The recombinant genes encoding the kinase domain containing fragments were cloned and expressed in standard baculovirus/Sf21 system (or alternative equivalent). […]
Constitutive kinase activity of these recombinant proteins was determined by their ability to phosphorylate a synthetic peptide (made up of a random co-polymer of Glutamic Acid, Alanine and Tyrosine in the ratio of 6:3:1). […]
The immobilised phospho-peptide product of the reaction was detected by immunological methods. […] Following extensive washing with PBS-T, HRP activity in each well of the plate was measured colorimetrically using 22′-Azino-di-[3-ethylbenzthiazoline sulfonate (6)] diammonium salt crystals ABTS (Sigma P4922-prepared as per manufactures instructions) as a substrate incubated for 30-45 minutes to allow colour development, before 100 ul of 1M H2SO4 was added to stop the reaction.
Quantification of colour development and thus enzyme activity was achieved by the measurement of absorbance at 405 nm on a Molecular Devices ThermoMax microplate reader. Kinase inhibition for a given compound was expressed as an IC50 value. […] The range of phosphorylation was calculated from the positive (vehicle plus ATP) and negative (vehicle minus ATP) control values.

T1 sequence (Q02763 23-1124): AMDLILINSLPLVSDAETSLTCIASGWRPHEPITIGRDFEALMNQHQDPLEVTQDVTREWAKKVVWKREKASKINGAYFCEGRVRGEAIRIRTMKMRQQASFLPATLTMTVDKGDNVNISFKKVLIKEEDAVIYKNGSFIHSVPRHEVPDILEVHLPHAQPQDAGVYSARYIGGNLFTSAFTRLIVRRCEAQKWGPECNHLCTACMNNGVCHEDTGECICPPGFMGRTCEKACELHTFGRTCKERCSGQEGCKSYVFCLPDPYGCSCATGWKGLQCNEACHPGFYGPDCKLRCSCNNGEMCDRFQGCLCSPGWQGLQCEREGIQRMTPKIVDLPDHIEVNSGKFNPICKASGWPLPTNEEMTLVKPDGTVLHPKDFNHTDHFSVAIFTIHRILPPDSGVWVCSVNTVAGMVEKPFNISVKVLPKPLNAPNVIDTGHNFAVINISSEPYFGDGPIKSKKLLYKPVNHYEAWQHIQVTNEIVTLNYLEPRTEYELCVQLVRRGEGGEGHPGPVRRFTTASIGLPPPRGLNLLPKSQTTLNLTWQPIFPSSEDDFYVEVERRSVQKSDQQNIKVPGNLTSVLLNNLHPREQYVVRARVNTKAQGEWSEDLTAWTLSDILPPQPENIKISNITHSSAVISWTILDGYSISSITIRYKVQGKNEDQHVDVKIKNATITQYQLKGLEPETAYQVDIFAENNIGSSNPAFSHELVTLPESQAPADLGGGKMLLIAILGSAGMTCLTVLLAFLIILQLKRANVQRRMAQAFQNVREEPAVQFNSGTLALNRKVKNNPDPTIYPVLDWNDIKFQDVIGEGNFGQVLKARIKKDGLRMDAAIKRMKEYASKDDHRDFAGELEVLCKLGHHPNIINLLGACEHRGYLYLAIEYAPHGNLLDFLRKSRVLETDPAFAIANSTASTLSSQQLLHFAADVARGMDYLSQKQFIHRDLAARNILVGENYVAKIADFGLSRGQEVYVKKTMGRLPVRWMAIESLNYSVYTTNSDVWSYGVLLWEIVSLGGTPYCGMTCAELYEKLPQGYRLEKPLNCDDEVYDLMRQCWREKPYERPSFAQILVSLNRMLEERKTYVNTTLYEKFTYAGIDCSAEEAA
T2 sequence (Q02763 770-1124 limits assumed): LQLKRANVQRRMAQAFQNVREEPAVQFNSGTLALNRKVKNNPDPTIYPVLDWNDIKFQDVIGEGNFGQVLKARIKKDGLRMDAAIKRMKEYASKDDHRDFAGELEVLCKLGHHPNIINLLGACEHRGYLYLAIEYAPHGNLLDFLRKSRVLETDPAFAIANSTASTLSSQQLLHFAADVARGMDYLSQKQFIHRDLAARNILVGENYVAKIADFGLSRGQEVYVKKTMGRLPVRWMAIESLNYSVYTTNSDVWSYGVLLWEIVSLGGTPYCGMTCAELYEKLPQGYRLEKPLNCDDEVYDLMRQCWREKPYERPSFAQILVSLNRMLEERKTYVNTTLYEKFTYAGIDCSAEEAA

Row | Compound | IC50 (Tie2 receptor) | IC50 [1]
1 | CC(C)(C)c1nnc(NC(=O)Nc2ccc(C#Cc3c(N)ncnc3N)cc2)s1 [Example 11, N-(5-tert-butyl-1,3,4-thiadiazol-2-yl)-N′-{4-[(4,6-diaminopyrimidin-5-yl)ethynyl]phenyl}urea] | 5.56 µM | 0.879 µM
2 | Cc1cc(NC(=O)Nc2ccc(C#Cc3c(N)ncnc3N)cc2)sn1 [Example 12, N-{4-[(4,6-diaminopyrimidin-5-yl)ethynyl]phenyl}-N′-(3-methylisothiazol-5-yl)urea] | 0.351 µM | 2.85 µM
3 | Cc1cc(NC(=O)Nc2cccc(C#Cc3c(N)ncnc3N)c2)on1 [Example 19, N-{3-[(4,6-diaminopyrimidin-5-yl)ethynyl]phenyl}-N′-(3-methylsoxazol-5-yl)urea] | 3.54 µM | 2.14 µM
